Experimental findings from patent US11040976B2, “Substrate selective inhibitors of insulin-degrading enzyme (IDE) and uses thereof” (President and Fellows of Harvard College, priority 2015, dated 2021) are described below.

For this assay, the target named is T1, recombinant human IDE42-1019 (Homo sapiens, UniProt P14735).
T1 construct: recombinant human IDE42-1019 (R&D Systems); purchased R&D Systems
T1 sequence (P14735 42-1019): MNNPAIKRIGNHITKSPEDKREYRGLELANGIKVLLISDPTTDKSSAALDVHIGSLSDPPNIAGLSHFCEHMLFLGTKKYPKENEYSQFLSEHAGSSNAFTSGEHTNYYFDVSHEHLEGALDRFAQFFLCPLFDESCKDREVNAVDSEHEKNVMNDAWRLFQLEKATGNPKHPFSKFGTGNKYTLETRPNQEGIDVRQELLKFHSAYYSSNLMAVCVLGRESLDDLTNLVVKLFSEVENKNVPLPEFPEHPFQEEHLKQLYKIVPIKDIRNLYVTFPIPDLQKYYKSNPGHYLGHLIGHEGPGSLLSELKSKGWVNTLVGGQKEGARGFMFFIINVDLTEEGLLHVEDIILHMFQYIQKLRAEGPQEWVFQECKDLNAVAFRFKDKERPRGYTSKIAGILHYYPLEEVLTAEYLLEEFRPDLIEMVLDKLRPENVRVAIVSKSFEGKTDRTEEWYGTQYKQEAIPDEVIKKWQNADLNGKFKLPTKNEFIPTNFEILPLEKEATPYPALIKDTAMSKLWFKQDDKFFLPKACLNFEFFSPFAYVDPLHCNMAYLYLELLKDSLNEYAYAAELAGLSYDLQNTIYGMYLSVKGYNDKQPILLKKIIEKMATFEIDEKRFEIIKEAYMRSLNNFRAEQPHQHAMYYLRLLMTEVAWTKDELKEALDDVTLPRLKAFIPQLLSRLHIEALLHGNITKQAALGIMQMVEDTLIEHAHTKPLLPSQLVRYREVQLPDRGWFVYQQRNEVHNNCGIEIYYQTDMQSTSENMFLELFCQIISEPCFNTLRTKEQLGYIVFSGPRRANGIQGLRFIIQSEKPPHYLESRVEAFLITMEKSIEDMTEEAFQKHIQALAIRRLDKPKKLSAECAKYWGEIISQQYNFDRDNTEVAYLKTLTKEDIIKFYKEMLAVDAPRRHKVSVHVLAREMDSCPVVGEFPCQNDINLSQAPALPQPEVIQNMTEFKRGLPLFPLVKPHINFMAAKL
Description: Protease assay with fluorogenic peptide substrate Mca-[…](Dnp)-OH. The class given is biochemical. As to conditions: fluorogenic peptide Mca-RPPGFSAFK(Dnp)-OH; for IC50: apparent IC50 for compounds with submaximal inhibition, read-out: IC50 (μM) Proteolysis; for Emax: read-out: Imax (%) Proteolysis (inhibition maximum). The method, then: The proteases IDE42-1019, recombinant human IDE42-1019 (R&D Systems), neprilysin (R&D), and angiotensin-converting enzyme (R&D) were assayed using the fluorophore/quencher-tagged peptide substrate Mca-[…](Dnp)-OH (SEQ ID NO: 24) (R&D) according to the manufacturer's instructions and using the recommended buffers (fluorophore Mca=(7-methoxycourmarin-4-yl)acetyl and quencher Dnp=2,4-dinitrophenyl). For IDE the recommended buffer is 50 mM Tris pH 7.5, 1 M NaCl. The enzyme mixtures (48 μL) were transferred to a 96-well plate and combined with 2 μL of inhibitor in DMSO solutions, in 3-fold dilution series. The mixtures were allowed to equilibrate for 10 minutes and the enzymatic reaction was started by addition of substrate peptide in assay buffer (50 μL), mixed, and monitored on a fluorescence plate reader (excitation at 320 nm, emission at 405 nm). Similarly, thimet oligopeptidase (R&D) and neurolysin (R&D) were assayed using substrate Mca-PLGPK(Dnp)-OH (SEQ ID NO: 25) (R&D) according to the manufacturer's instructions and using the recommended buffers. Matrix metalloproteinase-1 (R&D) was activated and assayed according to the manufacturer's instructions with substrate Mca-KPLGL-Dpa-AR-NH2 (SEQ ID NO: 20) (R&D) (quencher DPA=N-3-(2,4,dinitrophenyl)-L-2,3-diaminopropionyl). All assay data points were obtained in duplicate.

Setting [1] is: plateau at high inhibitor concentration.

`Cc1cccc(-c2ccc(N3CCN(C(=O)CC4CCCCC4)CC3)cc2)c1C` [J16]: the IC50 – broadly, the concentration that gives 50% inhibition – was 2.5 µM.
Still for that read-out and setting: in the case of `Cc1cccc(-c2ccc(C3CCN(S(=O)(=O)c4cc5ccccc5o4)CC3)cc2)c1C` [A03] it was over 100 µM.
Take `COc1ccccc1-c1ccc([C@H]2C3CN(S(=O)(=O)c4ccccc4C)CCCCN3[C@@H]2CO)cc1` (stereo partly drawn) [K14]: the IC50 is 0.3 µM. Under setting [1], the Emax is 65%.
As to `Cc1cccc(-c2ccc([C@@H]3[C@@H](CO)N4CCCCN(C(=O)c5ccc6c(c5)OCO6)C[C@@H]34)cc2)c1` [compound 291], the IC50 was over 200 µM.
Same read-out and setting: the result for `COC[C@@H]1[C@@H](c2ccc(-c3cccc(C)c3C)cc2)C2CN(S(=O)(=O)c3cnc(C)n3C)C/C=C\CN21` (stereo partly drawn) [JP-S18-OMe] reads 0.02 µM; that for `CC(=O)Nc1ccc(S(=O)(=O)N2CCCCN3[C@H](CO)[C@@H](c4ccc(-c5cccc(C)c5C)cc4)[C@@H]3C2)c(C)c1` [JP-S12], 0.03 µM; that for `Cc1ccccc1S(=O)(=O)N1CCCCN2[C@H](CO)[C@@H](c3ccc(-c4ccc(F)c(F)c4C)cc3)[C@@H]2C1` [K24], 0.3 µM.
Same read-out and setting: in the case of `Cc1cccc(-c2ccc(C3CCN(S(=O)(=O)c4cccnc4)CC3)cc2)c1C` [A16] it was 12 µM.
As for `O=C(NC1CCCC1)N1CCCCN2[C@@H](CO)[C@H](c3ccc(/C=C/c4ccccc4)cc3)[C@@H]2C1` [compound 346], the IC50 was 1.5 µM. Besides, under setting [1], the Emax was 80%.
Regarding `Cc1cccc(-c2ccc(N3CCN(C(=O)C4CCCCC4)CC3)cc2)c1C` [J9], the IC50 turned out to be 2.5 µM.
On the same count and under the same terms, in the case of `COc1cccc(-c2ccc([C@@H]3[C@@H](CO)N4CCCCN(S(=O)(=O)c5ccccc5C)C[C@@H]34)cc2)c1` [K3] it was 0.4 µM; in that of `Cc1cccc(-c2ccc(C3CCN(S(=O)(=O)N4CC(C)OC(C)C4)CC3)cc2)c1C` (stereo not drawn) [A19], 4 µM.
As for `Cc1cccc(-c2ccc(C3CCN(Cc4cccc(Oc5ccccc5)c4)CC3)cc2)c1C` [A32], the 50% inhibitory concentration (IC50) is 12 µM.
Still for that read-out and setting: in the case of `Cc1cccc(-c2ccc(C3CCN(C(=O)c4ccc5c(c4)OCCN5C)CC3)cc2)c1C` [A25] it was 0.9 µM; in that of `Cc1cccc(-c2ccc(C3CCN(C(=O)Oc4cccc5ccccc45)CC3)cc2)c1C` [A29], over 50 µM.
Take `Cc1cccc(-c2ccc(C3CCN(S(=O)(=O)c4ccc(F)c5ncccc45)CC3)cc2)c1C` [A07]: the half-maximal inhibitory concentration (IC50) was 3 µM.
For `Cc1cccc(-c2ccc(C3CCN(S(=O)(=O)c4ccc5c(c4)CCC(=O)N5)CC3)cc2)c1C` [A10], the IC50 amounted to 33 µM.
Regarding `Cc1cccc(-c2ccc([C@@H]3[C@@H](CO)N4CCCCN(S(=O)(=O)c5nccn5C)C[C@@H]34)cc2)c1C` [JP-S23], the half-maximal inhibitory concentration (IC50) stood at 0.0006 µM.
Same read-out and setting: the result for `Cc1ccccc1S(=O)(=O)N1CCCCN2[C@H](CO)[C@@H](c3ccc(-c4cnc(F)c(C)c4)cc3)[C@@H]2C1` [K26] reads 4 µM; that for `Cc1cccc(-c2ccc(C3CCN(Cc4ccc(Oc5ccccc5)cc4)CC3)cc2)c1C` [A31], 12 µM.
`Cc1ccccc1S(=O)(=O)N1CCCCN2C(C1)[C@H](c1ccc(-c3cccc(O)c3)cc1)[C@H]2CO` (stereo partly drawn) [K8]: the Emax under setting [1] stood at 100%.
Consider `Cc1c(-c2ccc([C@@H]3[C@@H](CO)N4CCCCN(S(=O)(=O)c5ccccc5C(F)(F)F)C[C@@H]34)cc2)cccc1C(F)(F)F` [K19], for which the IC50 is 0.1 µM.
With `Cc1cccc(-c2ccc([C@H]3[C@H](CO)N4C(=O)CN(C(=O)NC5CCCCC5)C[C@@H]34)cc2)c1` [compound 130], the half-maximal inhibitory concentration (IC50) was over 5 µM. The Emax under setting [1] came out at 60%.
Take `Cc1ccccc1S(=O)(=O)N1CCCCN2C(C1)[C@H](c1ccc(-c3cccc(F)c3F)cc1)[C@H]2CO` (stereo partly drawn) [K15]: under setting [1], the Emax turned out to be 90%.
Regarding `COC[C@@H]1[C@@H](c2ccc(-c3cccc(C)c3C)cc2)[C@@H]2CN(S(=O)(=O)c3ccccc3C(F)(F)F)CCCCN12` [JP-17-OMe], the concentration for half-maximal inhibition (IC50) stood at 0.05 µM.
In the case of `Cc1ccccc1-c1ccc([C@@H]2[C@@H](CO)N3CCCCN(S(=O)(=O)c4ccccc4C)C[C@@H]23)cc1` [B13], the “Imax (%) Proteolysis (inhibition maximum)” value under setting [1] amounted to 65%.
As to `Cc1cccc(-c2ccc(C3CCN(C(=O)C4c5ccccc5-c5ccccc54)CC3)cc2)c1C` [A27], the concentration for half-maximal inhibition (IC50) was 12 µM.
The same measure, in the same setting: the result for `Cc1cccc(-c2ccc([C@H]3C4CN(S(=O)(=O)c5ccccc5C)CCCCN4[C@@H]3CN)cc2)c1` (stereo partly drawn) [K29] reads 0.25 µM.
For `Cc1ccccc1S(=O)(=O)N1CCCCN2[C@H](CO)[C@@H](c3ccc(-c4ccccc4)cc3)[C@@H]2C1` [B6], the concentration for half-maximal inhibition (IC50) came to 1 µM. Besides, the Emax under setting [1] amounted to 65%.
In the same order, the values of `CCCNC(=O)N1CC(=O)N2[C@@H](CO)[C@H](c3ccc(-c4cccc(C)c4)cc3)[C@@H]2C1` [compound 231] are 2.5 µM and 60%.
With `Cc1cccc(-c2ccc(C3CCN(S(=O)(=O)c4cccc(Oc5ccc(F)cc5)c4)CC3)cc2)c1C` [A05], the IC50 was found to be 9 µM.
Turning to `Cc1ccccc1S(=O)(=O)N1CCCCN2[C@H](CO)[C@@H](c3ccccc3)[C@@H]2C1` [K2], the IC50 was over 100 µM.
Consider `Cc1c(F)ccc(-c2ccc([C@@H]3[C@@H](CO)N4CCCCN(S(=O)(=O)c5ccccc5C(F)(F)F)C[C@@H]34)cc2)c1C` [JP-41], for which the IC50 came to 0.03 µM.
As to `COc1ccc(C(=O)N2CCC(c3ccc(-c4cccc(C)c4C)cc3)CC2)c(OC)c1` [A21], the IC50 turned out to be 1 µM.
Same read-out and setting: in the case of `Cc1cccc(-c2ccc([C@@H]3[C@@H](CO)N4C/C=C\CN(S(=O)(=O)c5ccccc5C)C[C@@H]34)cc2)c1` [B1] it was 0.2 µM; in that of `Cc1c(Cl)cccc1-c1ccc([C@H]2C3CN(S(=O)(=O)c4ccccc4C(F)(F)F)C/C=C\CN3[C@@H]2CF)cc1` (stereo partly drawn) [JP-38], 0.06 µM; in that of `Cc1ccccc1S(=O)(=O)N1CCCCN2C(C1)[C@H](c1ccc(-c3cccc(C)c3C)cc1)[C@H]2CN` (stereo partly drawn) [JP-8N], 0.002 µM.
In the case of `Cc1ccccc1-c1ccc([C@H]2C3CN(S(=O)(=O)c4ccccc4C)CCCCN3[C@@H]2CO)cc1` (stereo partly drawn) [K12], the Emax under setting [1] was 65%.
Still for that read-out and setting: in the case of `Cc1ccc(-c2ccc([C@H]3C4CN(S(=O)(=O)c5ccccc5C)CCCCN4[C@@H]3CO)cc2)cc1C` (stereo partly drawn) [K4] it was 72%.
For `Cc1cccc(-c2ccc(C3CCN(S(=O)(=O)c4cccc(C(=O)N(C)C)c4)CC3)cc2)c1C` [A06], the IC50 was 1 µM.
As to `Cc1cccc(-c2ccc(C3CCN(C(=O)c4cccc(OCc5ccccc5)c4)CC3)cc2)c1C` [A22], the 50% inhibitory concentration (IC50) amounted to 1 µM.
Same read-out and setting: in the case of `Cc1ccccc1S(=O)(=O)N1CCCCN2[C@H](CO)[C@@H](c3ccc(-c4cccc(C)c4C)cc3)[C@@H]2C1` [K9] it was 0.002 µM.
For the molecule `COC[C@@H]1[C@@H](c2ccc(-c3cccc(C)c3C)cc2)[C@@H]2CN(S(=O)(=O)c3ccc[n+](C)c3C)CCCCN12` [JP-S21-diMe], the IC50 is over 0.2 µM.
In the case of `Cc1cccc(-c2ccc([C@@H]3[C@@H](CO)N4CCCCN(S(=O)(=O)c5ccnn5C(C)C)C[C@@H]34)cc2)c1C` [JP-S10], the IC50 was 0.015 µM.
For `Cc1ccccc1S(=O)(=O)N1CCCCN2[C@H](CO)[C@@H](c3ccc(-c4cccc(F)c4)cc3)[C@@H]2C1` [K11], the IC50 turned out to be 2.5 µM.
Regarding `Cc1cccc(-c2ccc(C3CCN(S(=O)(=O)c4cc(C(F)(F)F)cc(C(F)(F)F)c4)CC3)cc2)c1C` [A18], the 50% inhibitory concentration (IC50) amounted to 12 µM.
Still for that read-out and setting: the result for `Cc1cccc(-c2ccc([C@@H]3[C@@H](CN(C)C)N4CCCCN(S(=O)(=O)c5ccccc5C(F)(F)F)C[C@@H]34)cc2)c1C` [JP-17-DMA] reads 0.1 µM.
In the case of `CCC(=O)N1[C@H](CO)[C@H](c2ccc(-c3ccccc3OC)cc2)[C@@H]1CNC(C)=O` [D3], the concentration for half-maximal inhibition (IC50) worked out at 7 µM. Besides, the Emax under setting [1] was 50%.
